Patent publication US20130184321A1, “Model Mouse of Attention Deficit Hyperactivity Disorder, Method for Investigating Effects for Preventing and Alleviating Attention Disorder using the Model Mouse, and Method for Treating Attention Disorder by Suppressing T-Type Calcium Channel” (KOREA ADVANCED INSTITUTE OF SCIENCE AND TECHNOLOGY, priority 2010, published 2013)

System: ADHD animal model implanted with cobalt wire
Experiment: Changes in brain wave (EEG spikes) of ADHD animal model by T-type calcium channel blocker
Type: in vivo, mouse
Conditions: cobalt wire implanted 7~9 days earlier, brain wave observed for one hour; for spikes observed in the frontal lobe, after vs before treatment: P<0.05
Procedure: Particularly, to construct the ADHD mouse model, 0.2% avertin in 20 mg/ml of tribromoethanol was administered to the mouse by intraperitoneal injection (i.p.) to anesthetize it. The head of the mouse (B6 mouse at 10˜20 weeks) was fixed on stereotaxic (David Kopf Instruments, Germany) and then cobalt wire (Alfa Aesar) was inserted therein by using holder, a part of stereotaxic. Cobalt wire (Alfa Aesar) of 500 μm in the diameter was inserted radially (vertical direction to the cortical surface) in the location of anteroposteriorally 2.6 mm, laterally 1.8 mm, and ventrally 1.3 mm in the right dorsolateral frontal lobe.
For the record of EEG, epidural electrode was inserted in the right frontal lobe where the cobalt wire was inserted. Other electrodes were inserted in the left frontal lobe and temporal lobe. Particularly, the location for the insertion in the right frontal lobe was anteroposteriorally 2.8 mm and laterally 0.8 mm and the location in the left frontal lobe was anteroposteriorally 2.8 mm and laterally 0.8 mm. […]
After three days of recovery, EEG signals and video images were recorded for 30 days. […]
Particularly, 150 mg/kg of ethosuximide (Sigma-Aldrich, USA) was administered in the abdominal cavity of the ADHD animal model implanted with cobalt wire 7˜9 days earlier, followed by observation of the changes in brain wave for one hour. The mice were placed in the test room having square bottom where they could move freely and brain waves were being recorded from 30 minutes before the ethosuximide administration. The number of spikes was measured before and after the treatment of ethosuximide.
60 mg/kg of zonisamide (Sigma-Aldrich, USA) and 100 mg/kg of phyenytoin (Sigma-Aldrich, USA) were administered respectively in the abdominal cavity of the ADHD animal model implanted with cobalt wire 7˜9 days earlier, followed by observation of the changes in brain wave for one hour. The mice were placed in the test room having square bottom where they could move freely and brain waves were being recorded from 30 minutes before the ethosuximide administration. […]

NS(=O)(=O)Cc1noc2ccccc12 [zonisamide]
spikes observed in the frontal lobe, after vs before treatment (60 mg/kg in the abdominal cavity): significantly reduced

CCC1(C)CC(=O)NC1=O (stereo not drawn) [ethosuximide]
number of spikes observed in the frontal lobe, after vs before treatment (150 mg/kg in the abdominal cavity): significantly reduced

O=C1NC(=O)C(c2ccccc2)(c2ccccc2)N1 [phyenytoin]
spikes observed in the frontal lobe, after vs before treatment (100 mg/kg in the abdominal cavity): significantly reduced
